Results taken from patent US20100029479A1, “PESTICIDAL COMBINATIONS” (SYNGENTA CROP PROTECTION, INC., priority 2006, published 2010).

Legend:
Ustilago = experiment: Ustilago, % pest incidence (seed treatment, field plots); assay type: in vivo; settings: Antraquinone 50, combination 50 + 2 + 5 + 3 gai/100 kg seed
Tilletia caries = experiment: Tilletia caries, number of ears infected (seed treatment, field plots); assay type: in vivo; settings: Winter wheat/caphorn, Antraquinone 50, combination 50 + 2 + 5 + 3 gai/100 kg seed

For O=C1c2ccccc2C(=O)c2ccccc21 [Antraquinone], the “% Pest Incidence” value (Ustilago; Trial 1, Winter barley var LL09OH05, plot 15 m^2, 210 DAP) was 18.1 (a) %, the “% Pest Incidence” value (Ustilago; Trial 2, Winter barley var LL05OH05, plot 14.4 m^2, 205 DAP) was 5.6 (a) % and the “% Pest Incidence” value (Ustilago; Trial 3, Winter barley, plot 14.4 m^2, 161 DAP) was 22.2 (a) %. For the same compound, the “Number of Ears Infected” value (Tilletia caries; Trial 1, plot 15 m^2, 253 DAP) was 14.3 (a), the “Number of Ears Infected” value (Tilletia caries; Trial 2, plot 14.25 m^2, 220 DAP) was 232.3 (a) and the “Number of Ears Infected” value (Tilletia caries; Trial 3, plot 15 m^2, 212 DAP) was 84.3 (a). The “Number of Ears Infected” value (Tilletia caries; Trial 4, plot 12 m^2, 192 DAP) was 56 (a).
